Data taken from patent US20230151025A1, “SUBSTITUTED THIAZOLOPYRIDINES, SALTS THEREOF AND THEIR USE AS HERBICIDALLY ACTIVE SUBSTANCES” (Bayer Aktiengesellschaft, priority 2020, published 2023).

What follows are molecules tested on Alopecurus myosuroides (ALOMY) (assay: Herbicidal pre-emergence action (A), 1280 g/ha). Details: visual grading after ca. 3 weeks vs untreated controls, 100% = plants have died off, 0% = as control plants.
Assay type: in vivo
From the text: (§1) ABUTH: Abutilon theophrasti AGSTE: Agrostis tenuis ALOMY: Alopecurus myosuroides AMARE Amaranthus retroflexus DIGSA: Digitaria sanguinalis ECHCG: Echinochloa crus-galli KCHSC: Kochia scoparia LOLRI: Lolium rigidum MATIN: Matricaria inodora POAAN: Poa annua POLCO: Polygonum convolvulus SETVI: Setaria viridis STEME: Stellaria media VERPE: Veronica persica VIOTR: Viola tricolor
(§2) Seeds of mono- and dicotyledonous weed plants were sown in plastic pots (double sowings with one species of mono- and one species of dicotyledonous weed plants per pot), in sandy loam, and covered with soil. The compounds according to the invention, formulated in the form of wettable powders (WP) or as emulsifiable concentrates (EC), were applied to the surface of the covering soil as aqueous suspension or emulsion, with the addition of 0.5% of an additive, at an application rate of 600 l of water per hectare (converted). Following treatment, the pots were placed in a greenhouse and kept under optimum growth conditions for the test plants. The visual grading of the damage to the test plants was carried out after ca. 3 weeks in comparison to untreated controls (herbicidal effect in percent (%): 100% effect=plants have died off, 0% effect=as control plants).
(§3) Tables A1 to A12, below, show the effects of selected compounds of the general formula (I) according to table 1 on various harmful plants and an application rate corresponding to 1280 g/ha obtained by the experimental procedure mentioned above.

SMILES	ALOMY, herbicidal effect in percent (%)
CCc1cc2sc(S)nc2nc1-c1ccccc1F [Example I-165]	90%

What follows are molecules tested on Amaranthus retroflexus (AMARE) (assay: Herbicidal pre-emergence action (A), 1280 g/ha). Details: visual grading after ca. 3 weeks vs untreated controls.
Assay type: in vivo
From the text: as §1, §2, §3

SMILES	herbicidal effect AMARE
Fc1ccc(-c2ccc3scnc3n2)cc1 [Example I-074, 5-(4-fluorophenyl)thiazolo[4,5-b]pyridine]	90%
CCc1cc2scnc2nc1C12CCCCC1O2 (stereo not shown) [Example I-152]	90%
CCc1cc2sc(S)nc2nc1-c1ccccc1F [Example I-165]	90%

The molecules below were run on Digitaria sanguinalis (DIGSA) (assay: Herbicidal pre-emergence action (A), 1280 g/ha). Details: visual grading after ca. 3 weeks vs untreated controls, 100% = plants have died off, 0% = as control plants.
Assay type: in vivo
From the text: as §1, §2, §3

SMILES	DIGSA, herbicidal effect in percent (%)
Fc1ccc(-c2ccc3scnc3n2)cc1 [Example I-074, 5-(4-fluorophenyl)thiazolo[4,5-b]pyridine]	100%
CCc1cc2scnc2nc1C12CCCCC1O2 (stereo not shown) [Example I-152]	100%

These molecules were tested on Echinochloa crus-galli (ECHCG) (assay: Herbicidal pre-emergence action (A), 1280 g/ha). Details: visual grading after ca. 3 weeks vs untreated controls, 100% = plants have died off, 0% = as control plants.
Assay type: in vivo
From the text: as §1, §2, §3

SMILES	ECHCG, herbicidal effect in percent (%)
Cc1nc2nc(-c3ccccc3F)c(C)cc2s1 [Example I-001]	100%
Fc1ccc(-c2ccc3scnc3n2)cc1 [Example I-074, 5-(4-fluorophenyl)thiazolo[4,5-b]pyridine]	100%
CCc1cc2scnc2nc1C12CCCCC1O2 (stereo not shown) [Example I-152]	100%

What follows are molecules tested on Kochia scoparia (KCHSC; Bassia scoparia) (assay: Herbicidal pre-emergence action (A), 1280 g/ha). Details: visual grading after ca. 3 weeks vs untreated controls.
Assay type: in vivo
From the text: as §1, §2, §3

SMILES	herbicidal effect KCHSC
CCc1cc2scnc2nc1C12CCCCC1O2 (stereo not shown) [Example I-152]	100%

These molecules were tested on Lolium rigidum (LOLRI) (assay: Herbicidal pre-emergence action (A), 1280 g/ha). Details: visual grading after ca. 3 weeks vs untreated controls, 100% = plants have died off, 0% = as control plants.
Assay type: in vivo
From the text: as §1, §2, §3

SMILES	LOLRI, herbicidal effect in percent (%)
CCc1cc2scnc2nc1C12CCCCC1O2 (stereo not shown) [Example I-152]	100%

These molecules were tested on Matricaria inodora (MATIN) (assay: Herbicidal pre-emergence action (A), 1280 g/ha). Details: visual grading after ca. 3 weeks vs untreated controls.
Assay type: in vivo
From the text: as §1, §2, §3

SMILES	herbicidal effect MATIN
Cc1nc2nc(-c3ccccc3F)c(C)cc2s1 [Example I-001]	90%
CCc1cc2scnc2nc1C12CCCCC1O2 (stereo not shown) [Example I-152]	90%

What follows are molecules tested on Poa annua (POAAN) (assay: Herbicidal pre-emergence action (A), 1280 g/ha). Details: visual grading after ca. 3 weeks vs untreated controls, 100% = plants have died off, 0% = as control plants.
Assay type: in vivo
From the text: as §1, §2, §3

SMILES	POAAN, herbicidal effect in percent (%)
Fc1ccc(-c2ccc3scnc3n2)cc1 [Example I-074, 5-(4-fluorophenyl)thiazolo[4,5-b]pyridine]	100%
CCc1cc2scnc2nc1C12CCCCC1O2 (stereo not shown) [Example I-152]	100%
CCc1cc2sc(S)nc2nc1-c1ccccc1F [Example I-165]	100%

The molecules below were run on Setaria viridis (SETVI) (assay: Herbicidal pre-emergence action (A), 1280 g/ha). Details: visual grading after ca. 3 weeks vs untreated controls.
Assay type: in vivo
From the text: as §1, §2, §3

SMILES	herbicidal effect SETVI
Cc1nc2nc(-c3ccccc3F)c(C)cc2s1 [Example I-001]	100%
Fc1ccc(-c2ccc3scnc3n2)cc1 [Example I-074, 5-(4-fluorophenyl)thiazolo[4,5-b]pyridine]	100%
CCc1cc2scnc2nc1C12CCCCC1O2 (stereo not shown) [Example I-152]	100%
CCc1cc2sc(S)nc2nc1-c1ccccc1F [Example I-165]	100%

The molecules below were run on Stellaria media (STEME) (assay: Herbicidal pre-emergence action (A), 1280 g/ha). Details: visual grading after ca. 3 weeks vs untreated controls.
Assay type: in vivo
From the text: as §1, §2, §3

SMILES	herbicidal effect STEME
Cc1nc2nc(-c3ccccc3F)c(C)cc2s1 [Example I-001]	90%
CCc1cc2scnc2nc1C12CCCCC1O2 (stereo not shown) [Example I-152]	90%
CCc1cc2sc(S)nc2nc1-c1ccccc1F [Example I-165]	90%

What follows are molecules tested on Veronica persica (VERPE) (assay: Herbicidal pre-emergence action (A), 1280 g/ha). Details: visual grading after ca. 3 weeks vs untreated controls.
Assay type: in vivo
From the text: as §1, §2, §3

SMILES	herbicidal effect VERPE
CCc1cc2scnc2nc1C12CCCCC1O2 (stereo not shown) [Example I-152]	90%
CCc1cc2sc(S)nc2nc1-c1ccccc1F [Example I-165]	90%

Each molecule was assayed on Abutilon theophrasti (ABUTH) (assay: Herbicidal post-emergence action (B), 1280 g/ha). Details: rated visually after about 3 weeks vs untreated controls.
Assay type: in vivo
From the text: as §1
(§4) Seeds of mono- and dicotyledonous weed plants were placed in plastic pots in sandy loam soil (doubly sown with in each case one species of mono- or dicotyledonous weed plants per pot), covered with soil and cultivated in a greenhouse under controlled growth conditions. 2 to 3 weeks after sowing, the test plants were treated at the one-leaf stage. The compounds of the invention, formulated in the form of wettable powders (WP) or as emulsion concentrates (EC), were applied onto the green parts of the plants as aqueous suspension or emulsion with addition of 0.5% additive at a water application rate of 600 liters per hectare (converted). After the test plants had been kept in the greenhouse under optimum growth conditions for about 3 weeks, the activity of the preparations was rated visually in comparison to untreated controls. For example, 100% activity=the plants have died, 0% activity=like control plants.
(§5) Tables B1 to B12, below, show the effects of selected compounds of the general formula (I) according to table 1 on various harmful plants and an application rate corresponding to 1280 g/ha obtained by the experimental procedure mentioned above.

SMILES	herbicidal activity ABUTH
CCc1cc2scnc2nc1C12CCCCC1O2 (stereo not shown) [Example I-152]	90%

Each molecule was assayed on Alopecurus myosuroides (ALOMY) (assay: Herbicidal post-emergence action (B), 1280 g/ha). Details: rated visually after about 3 weeks vs untreated controls.
Assay type: in vivo
From the text: as §1, §4, §5

SMILES	herbicidal activity ALOMY
CCc1cc2scnc2nc1C12CCCCC1O2 (stereo not shown) [Example I-152]	100%

Each molecule was assayed on Amaranthus retroflexus (AMARE) (assay: Herbicidal post-emergence action (B), 1280 g/ha). Details: rated visually after about 3 weeks vs untreated controls.
Assay type: in vivo
From the text: as §1, §4, §5

SMILES	herbicidal activity AMARE
Cc1nc2nc(-c3ccccc3F)c(C)cc2s1 [Example I-001]	90%
Fc1ccc(-c2ccc3scnc3n2)cc1 [Example I-074, 5-(4-fluorophenyl)thiazolo[4,5-b]pyridine]	90%
CCc1cc2scnc2nc1C12CCCCC1O2 (stereo not shown) [Example I-152]	100%

Each molecule was assayed on Digitaria sanguinalis (DIGSA) (assay: Herbicidal post-emergence action (B), 1280 g/ha). Details: rated visually after about 3 weeks vs untreated controls.
Assay type: in vivo
From the text: as §1, §4, §5

SMILES	herbicidal activity DIGSA
Fc1ccc(-c2ccc3scnc3n2)cc1 [Example I-074, 5-(4-fluorophenyl)thiazolo[4,5-b]pyridine]	100%
CCc1cc2sc(S)nc2nc1-c1ccccc1F [Example I-165]	100%

Each molecule was assayed on Kochia scoparia (KCHSC; Bassia scoparia) (assay: Herbicidal post-emergence action (B), 1280 g/ha). Details: not given.
Assay type: in vivo
From the text: as §1, §4, §5

SMILES	herbicidal effect KCHSC
Fc1ccc(-c2ccc3scnc3n2)cc1 [Example I-074, 5-(4-fluorophenyl)thiazolo[4,5-b]pyridine]	90%
CCc1cc2scnc2nc1C12CCCCC1O2 (stereo not shown) [Example I-152]	90%
CCc1cc2sc(S)nc2nc1-c1ccccc1F [Example I-165]	90%

The molecules below were run on Poa annua (POAAN) (assay: Herbicidal post-emergence action (B), 1280 g/ha). Details: rated visually after about 3 weeks vs untreated controls.
Assay type: in vivo
From the text: as §1, §4, §5

SMILES	herbicidal activity POAAN
CCc1cc2scnc2nc1C12CCCCC1O2 (stereo not shown) [Example I-152]	100%

These molecules were tested on Setaria viridis (SETVI) (assay: Herbicidal post-emergence action (B), 1280 g/ha). Details: rated visually after about 3 weeks vs untreated controls.
Assay type: in vivo
From the text: as §1, §4, §5

SMILES	herbicidal activity SETVI
Cc1nc2nc(-c3ccccc3F)c(C)cc2s1 [Example I-001]	90%

The molecules below were run on Stellaria media (STEME) (assay: Herbicidal post-emergence action (B), 1280 g/ha). Details: not given.
Assay type: in vivo
From the text: as §1, §4, §5

SMILES	herbicidal effect STEME
Fc1ccc(-c2ccc3scnc3n2)cc1 [Example I-074, 5-(4-fluorophenyl)thiazolo[4,5-b]pyridine]	90%

What follows are molecules tested on Veronica persica (VERPE) (assay: Herbicidal post-emergence action (B), 1280 g/ha). Details: not given.
Assay type: in vivo
From the text: as §1, §4, §5

SMILES	herbicidal effect VERPE
CCc1cc2scnc2nc1C12CCCCC1O2 (stereo not shown) [Example I-152]	100%
CCc1cc2sc(S)nc2nc1-c1ccccc1F [Example I-165]	90%
